How the values were obtained:
hepatocyte growth factor [1] = assay: Protein level in patient after Tempol treatment; assay type: in vivo, human; settings: 1500 mg per day for 180 days
Experimental: (§1) A 70-kilogram patient three days post myocardial infarction is administered a dose of 1500 mg of Tempol per day for 180 days. This may be administered in a single dose, or may be administered as a number of smaller doses over a 24-hour period: for example, three 500-mg doses at eight-hour intervals. Following treatment, the protein level of hepatocyte growth factor and adiponectin in the plasma is increased, and the protein level of caspase 3 is decreased.
(§2) A 70-kilogram patient at risk for myocardial infarction is administered a dose of 1500 mg of Tempol per day for 180 days. This may be administered in a single dose, or may be administered as a number of smaller doses over a 24-hour period: for example, three 500-mg doses at eight-hour intervals. Following treatment, the protein level of hepatocyte growth factor and adiponectin in the plasma is increased, and the protein level of caspase 3 is decreased.

caspase 3 [2] = assay: Protein level in patient after Tempol treatment; assay type: in vivo, human; settings: 1500 mg per day for 180 days
Experimental: as §1, §2

adiponectin = assay: Protein level in patient after Tempol treatment; assay type: in vivo, human; settings: 1500 mg per day for 180 days
Experimental: as §1, §2

endothelium = settings: angiotensin II infused rats, introduction of Tempol; cited from earlier work
hepatocyte growth factor [3] = assay: Gene expression in cardiac tissue of mice fed Tempol, chip-based microarray; assay type: in vivo; settings: 5 mg/g of food from 14 to 31 months of age
Experimental: To assess the effects of Tempol on gene expression, Tempol was administered to experimental mice at a dose of 5 mg/g of food from 14 months to 31 months after birth. Mice receiving the same food without the addition of Tempol were used as a negative control. At the age of 31 months, the experimental animals were sacrificed and the hearts were surgically removed. The expression of a broad spectrum of genes in the cardiac tissue was assessed using chip-based microarray technology. Such chips are well known in the art and are widely used to assess gene expression.

[4] = tested on: Adiponectin, C1Q and collagen domain containing; assay: Gene expression in adipose tissue of mice fed Tempol, Affymetrix MOE430A 2.0 array; assay type: in vivo; settings: 5 g/kg of diet from 12 through 15 months
Experimental: (§3) In a further gene expression study, Tempol was administered to experimental mice at a dose of 5 g/kg of diet from 12 months through 15 months. Mice receiving the same diet without the addition of Tempol were used as a negative control. At the age of 15 months, the adipose tissue of the experimental animals was obtained. The expression of a broad spectrum of genes in the adipose tissue was assessed using chip-based microarray technology. Specifically, in this case an Affymetrix MOE430A 2.0 array, containing 12,960 genes, was employed. Such chips are well known in the art and are widely used to assess gene expression.

Caspase 3 [5] = assay: as above; assay type: in vivo; settings: 5 g/kg of diet from 12 through 15 months
Experimental: as §3

[6] = Example 1: 70-kg patient three days post myocardial infarction
[7] = Example 2: 70-kg patient at risk for myocardial infarction

For `CC1(C)CC(O)CC(C)(C)N1[O]` [Tempol, 4-hydroxy-2,2,6,6-tetramethylpiperidine-1-oxyl], the “Protein level of hepatocyte growth factor in the plasma” value (hepatocyte growth factor [1]; [6]) was “increased”, the “Protein level of hepatocyte growth factor in the plasma” value (hepatocyte growth factor [1]; [7]) was “increased” and the “Protein level of caspase 3” value (caspase 3 [2]; [6]) was “decreased”. The “Protein level of caspase 3” value (caspase 3 [2]; [7]) was “decreased”, the “Protein level of adiponectin in the plasma” value (adiponectin; [6]) was “increased” and the “Protein level of adiponectin in the plasma” value (adiponectin; [7]) was “increased”. The “Deleterious effects of angiotensin II on the endothelium” value (endothelium) was “ameliorated”, the “HGF expression, fold change (increase) vs control mice” value (hepatocyte growth factor [3]) was 3.2 fold and the “HGF (ORF W12681) expression, TEMPOL-treated mouse tp51” value (hepatocyte growth factor [3]; microarray signal) was 152. For the same compound, the “HGF (ORF W12681) expression, TEMPOL-treated mouse tp52” value (hepatocyte growth factor [3]; microarray signal) was 151, the “HGF (ORF W12681) expression, TEMPOL-treated mouse tp53” value (hepatocyte growth factor [3]; microarray signal) was 207 and the “Adiponectin expression, fold change (increase) vs control mice” value [4] was 1.22 fold. For the same compound, the “Adiponectin expression, mean (Tempol-treated mice)” value ([4]; microarray signal) was 33876, the “Caspase 3 expression, mean (Tempol-treated mice)” value (Caspase 3 [5]; microarray signal) was 414 and the “Caspase 3 expression, fold change vs control mice (signed)” value (Caspase 3 [5]; negative = decrease) was −1.47 fold. For the same compound, the “Caspase 3 expression, fold decrease vs control mice” value (Caspase 3 [5]; stated as decreased) was 1.47 fold.

Reference: patent US20090062338A1, “[…] USE IN TREATING OR PREVENTING CARDIOVASCULAR DISEASE” (priority 2005, published 2009)
